# In paper PMC6321168, “Comparative Study on Excretive Characterization of Main Components in Herb Pair Notoginseng-Safflower and Single Herbs by LC–MS/MS” (Pharmaceutics, 2018):
# Assay: Urinary excretion study in rats after oral NS, SF or CNS (LC–MS/MS)
# Assay type: in vivo
# Conditions: for concentration at 2 h / concentration at 4 h / concentration at 8 h / concentration at 12 h / concentration at 24 h / concentration at 36 h / concentration at 48 h / concentration at 72 h / concentration at 96 h / concentration at 120 h / concentration at 6 h: male, Sprague Dawley, rat, urine, oral; for Accumulative excretion amount / Accumulative excretion percentage / Excretion amount: rat urine
# Experimental: The animal room was set at constant temperature of 20 ± 2 °C with humidity of 50 ± 20% and 12/12 h light/dark cycle.
# Eighteen male rats were fasted for 12 h before starting the experiment. The rats were divided into three groups at random (n = 6) and received NS (60 mg/kg), SF (50 mg/kg), and NS (60 mg/kg) + SF (50 mg/kg), respectively, by oral gavage. The rats were placed in separate metabolic cages. The urine samples were collected at 0–2, 2–4, 4–6, 6–8, 8–12, 12–24, 24–36, 36–48, 48–72, 72–96, and 96–120 h. The feces samples were collected at 0–4, 4–8, 8–12, 12–24, 24–36, 36–48, 48–72, 72–96, and 96–120 h. The urine volume was recorded and the dry feces were measured for each collection period. Samples were stored at −80 °C until analysis.
# An aliquot of 200 μL urine sample was mixed with 10 μL of IS and evaporated to dryness with a ZLS-2 vacuum centrifugal concentrator (Herexi Co., Ltd., Changsha, Hunan, China). The residue was reconstituted in 100 μL of 50% methanol vortexed for 2 min and centrifuged at 12,000 rpm for 15 min. Finally, a 1 μL aliquot was injected for LC–MS analysis.
# Ultra fast liquid chromatography (UFLC) analysis was performed using a Shimadzu UFLC system (DGU-20A3R Degasser; LC-20AD pump; SIL-20AXR Autosampler; CTO-20AC Column Oven) (Nakagyo-Ku, Koyoto, Japan). […] Because of the different endogenous substances in the urine and feces samples, different elution gradients were used to alleviate the matrix effects for the analytes.
# The mass spectrometric detection was performed on an ABSciex 4500 Qtrap mass spectrometer (ABSciex, Foster City, CA, USA) equipped with a negative electrospray ionization (ESI) interface using multiple reaction monitoring (MRM). The MS parameters were optimized under the selected ion monitoring conditions as follows: curtain gas, 35 psi; ionspray voltage, 4500 V; turbo gas temperature, 450 °C; GS1, 45 psi; GS2, 45 psi. All data were acquired and analyzed by Analyst software (Versions 1.6.2) from ABSciex.
# The accumulative excretion percentage was calculated for each analyte as follows. Excretion at time (t) = [concentration of the analyte (ng/mL) at t] × total urine (or feces) volume (mL) at t. The cumulative excretion up to time t (mg) was expressed as a percent (%) cumulative excretion by dividing by the total amount of the analyte ingested (mg): % Cumulative Excretion = 100 × (Σt excretiont) total ingested.
smiles,measurement,setting,value
CC(C)=CCC[C@](C)(O[C@@H]1O[C@H](CO)[C@@H](O)[C@H](O)[C@H]1O)[C@H]1CC[C@]2(C)[C@@H]1[C@H](O)C[C@@H]1[C@@]3(C)CC[C@H](O)C(C)(C)[C@@H]3[C@@H](O[C@@H]3O[C@H](CO)[C@@H](O)[C@H](O)[C@H]3O[C@@H]3O[C@@H](C)[C@H](O)[C@@H](O)[C@H]3O)C[C@]12C [ginsenoside Re],concentration at 2 h,"60 mg/kg, oral NS 60 mg/kg, 2 h",289 ± 689 ng/mL
same,concentration at 4 h,"60 mg/kg, oral NS 60 mg/kg, 4 h",91 ± 119 ng/mL
same,concentration at 8 h,"60 mg/kg, oral NS 60 mg/kg, 8 h",40 ± 26 ng/mL
same,concentration at 12 h,"60 mg/kg, oral NS 60 mg/kg, 12 h",33 ± 24 ng/mL
same,concentration at 24 h,"60 mg/kg, oral NS 60 mg/kg, 24 h",17 ± 34 ng/mL
same,concentration at 36 h,"60 mg/kg, oral NS 60 mg/kg, 36 h",15 ± 23 ng/mL
same,concentration at 48 h,"60 mg/kg, oral NS 60 mg/kg, 48 h",13 ± 24 ng/mL
same,concentration at 72 h,"60 mg/kg, oral NS 60 mg/kg, 72 h",17 ± 37 ng/mL
same,concentration at 96 h,"60 mg/kg, oral NS 60 mg/kg, 96 h",7 ± 13 ng/mL
same,concentration at 120 h,"60 mg/kg, oral NS 60 mg/kg, 120 h",4 ± 8 ng/mL
same,concentration at 2 h,"oral CNS 110 mg/kg, 2 h",86 ± 88 ng/mL
same,concentration at 4 h,"oral CNS 110 mg/kg, 4 h",70 ± 89 ng/mL
same,concentration at 6 h,"oral CNS 110 mg/kg, 6 h",39 ± 27 ng/mL
same,concentration at 8 h,"oral CNS 110 mg/kg, 8 h",41 ± 35 ng/mL
same,concentration at 12 h,"oral CNS 110 mg/kg, 12 h",35 ± 41 ng/mL
same,concentration at 24 h,"oral CNS 110 mg/kg, 24 h",369 ± 963 ng/mL
same,concentration at 36 h,"oral CNS 110 mg/kg, 36 h",24 ± 38 ng/mL
same,concentration at 48 h,"oral CNS 110 mg/kg, 48 h",6 ± 7 ng/mL
same,concentration at 72 h,"oral CNS 110 mg/kg, 72 h",5 ± 7 ng/mL
same,concentration at 96 h,"oral CNS 110 mg/kg, 96 h",3 ± 5 ng/mL
same,concentration at 120 h,"oral CNS 110 mg/kg, 120 h",4 ± 8 ng/mL
same,concentration at 6 h,"oral NS 60 mg/kg, 6 h",32 ± 30 ng/mL
same,Accumulative excretion amount,"oral CNS 110 mg/kg, 2 h",0.133 ± 0.062 µg
same,Accumulative excretion percentage,"oral CNS 110 mg/kg, 2 h",0.028±0.013%
same,Accumulative excretion amount,"oral CNS 110 mg/kg, 4 h",0.193 ± 0.131 µg
same,Accumulative excretion percentage,"oral CNS 110 mg/kg, 4 h",0.041±0.028%
same,Excretion amount,"oral CNS 110 mg/kg, 4 h",0.100 ± 0.090 µg
same,Accumulative excretion amount,"oral CNS 110 mg/kg, 6 h",0.231 ± 0.118 µg
same,Accumulative excretion percentage,"oral CNS 110 mg/kg, 6 h",0.049± 0.025%
same,Excretion amount,"oral CNS 110 mg/kg, 6 h",0.064 ± 0.030 µg
same,Accumulative excretion amount,"oral CNS 110 mg/kg, 8 h",0.289 ± 0.121 µg
same,Accumulative excretion percentage,"oral CNS 110 mg/kg, 8 h",0.061±0.026%
same,Excretion amount,"oral CNS 110 mg/kg, 8 h",0.072 ± 0.033 µg
same,Accumulative excretion amount,"oral CNS 110 mg/kg, 12 h",0.324 ± 0.110 µg
same,Accumulative excretion percentage,"oral CNS 110 mg/kg, 12 h",0.069±0.023%
same,Excretion amount,"oral CNS 110 mg/kg, 12 h",0.035 ± 0.015 µg
same,Accumulative excretion amount,"oral CNS 110 mg/kg, 24 h",0.381 ± 0.153 µg
same,Accumulative excretion percentage,"oral CNS 110 mg/kg, 24 h",0.081±0.032%
same,Excretion amount,"oral CNS 110 mg/kg, 24 h",0.058 ± 0.054 µg
same,Accumulative excretion amount,"oral CNS 110 mg/kg, 36 h",0.411 ± 0.177 µg
same,Accumulative excretion percentage,"oral CNS 110 mg/kg, 36 h",0.087±0.037%
same,Excretion amount,"oral CNS 110 mg/kg, 36 h",0.030 ± 0.037 µg
same,Accumulative excretion amount,"oral CNS 110 mg/kg, 48 h",0.447 ± 0.206 µg
same,Accumulative excretion percentage,"oral CNS 110 mg/kg, 48 h",0.095±0.044%
same,Excretion amount,"oral CNS 110 mg/kg, 48 h",0.03 ± 0.038 µg
same,Accumulative excretion amount,"oral CNS 110 mg/kg, 72 h",0.460 ± 0.207 µg
same,Accumulative excretion percentage,"oral CNS 110 mg/kg, 72 h",0.097±0.044%
same,Excretion amount,"oral CNS 110 mg/kg, 72 h",0.013 ± 0.017 µg
same,Accumulative excretion amount,"oral CNS 110 mg/kg, 96 h",0.468 ± 0.217 µg
same,Accumulative excretion percentage,"oral CNS 110 mg/kg, 96 h",0.099±0.046%
same,Excretion amount,"oral CNS 110 mg/kg, 96 h",0.008 ± 0.012 µg
same,Accumulative excretion amount,"oral CNS 110 mg/kg, 120 h",0.472 ± 0.219 µg
same,Accumulative excretion percentage,"oral CNS 110 mg/kg, 120 h",0.100±0.046%
same,Excretion amount,"oral CNS 110 mg/kg, 120 h",0.004 ± 0.005 µg
same,Accumulative excretion amount,"oral NS 60 mg/kg, 2 h",0.304 ± 0.161 µg
same,Accumulative excretion percentage,"oral NS 60 mg/kg, 2 h",0.064±0.030%
same,Excretion amount,"oral NS 60 mg/kg, 2 h",0.304 ± 0.161 µg
same,Accumulative excretion amount,"oral NS 60 mg/kg, 4 h",0.390 ± 0.199 µg
same,Accumulative excretion percentage,"oral NS 60 mg/kg, 4 h",0.072±0.037%
same,Excretion amount,"oral NS 60 mg/kg, 4 h",0.129 ± 0.051 µg
same,Accumulative excretion amount,"oral NS 60 mg/kg, 6 h",0.509 ± 0.225 µg
same,Accumulative excretion percentage,"oral NS 60 mg/kg, 6 h",0.096±0.042%
same,Excretion amount,"oral NS 60 mg/kg, 6 h",0.143 ± 0.125 µg
same,Accumulative excretion amount,"oral NS 60 mg/kg, 8 h",0.625 ± 0.321 µg
same,Accumulative excretion percentage,"oral NS 60 mg/kg, 8 h",0.127±0.059%
same,Excretion amount,"oral NS 60 mg/kg, 8 h",0.173 ± 0.121 µg
same,Accumulative excretion amount,"oral NS 60 mg/kg, 12 h",0.721 ± 0.406 µg
same,Accumulative excretion percentage,"oral NS 60 mg/kg, 12 h",0.138±0.075%
same,Excretion amount,"oral NS 60 mg/kg, 12 h",0.096 ± 0.087 µg
same,Accumulative excretion amount,"oral NS 60 mg/kg, 24 h",0.745 ± 0.403 µg
same,Accumulative excretion percentage,"oral NS 60 mg/kg, 24 h",0.149±0.074%
same,Excretion amount,"oral NS 60 mg/kg, 24 h",0.024 ± 0.015 µg
same,Accumulative excretion amount,"oral NS 60 mg/kg, 36 h",0.782 ± 0.377 µg
same,Accumulative excretion percentage,"oral NS 60 mg/kg, 36 h",0.141±0.070%
same,Excretion amount,"oral NS 60 mg/kg, 36 h",0.044 ± 0.046 µg
same,Accumulative excretion amount,"oral NS 60 mg/kg, 48 h",0.802 ± 0.380 µg
same,Accumulative excretion percentage,"oral NS 60 mg/kg, 48 h",0.152±0.070%
same,Excretion amount,"oral NS 60 mg/kg, 48 h",0.020 ± 0.022 µg
same,Accumulative excretion amount,"oral NS 60 mg/kg, 72 h",0.809 ± 0.391 µg
same,Accumulative excretion percentage,"oral NS 60 mg/kg, 72 h",0.156±0.072%
same,Excretion amount,"oral NS 60 mg/kg, 72 h",0.007 ± 0.017 µg
same,Accumulative excretion amount,"oral NS 60 mg/kg, 96 h",0.814 ± 0.399 µg
same,Accumulative excretion percentage,"oral NS 60 mg/kg, 96 h",0.154±0.074%
same,Excretion amount,"oral NS 60 mg/kg, 96 h",0.005 ± 0.010 µg
same,Accumulative excretion amount,"oral NS 60 mg/kg, 120 h",0.819 ± 0.408 µg
same,Accumulative excretion percentage,"oral NS 60 mg/kg, 120 h",0.154±0.075%
same,Excretion amount,"oral NS 60 mg/kg, 120 h",0.004 ± 0.010 µg
